Assay results from patent US20070270418A1, “Inhibitors of P38 and Methods of Using the Same” (priority 2003, published 2007).
pIC50: −log10 of the molar value.

Molecular target: T1, p38α (Homo sapiens, UniProt Q16539)
T1 construct: p38 MAP Kinases are recombinant human full-length proteins with an amino-terminal GST fusion; GST (N); purchased Upstate (Charlottesville, Va.); host or cells: E. coli
Experiment: p38 MAP Kinase assay, ATF2 phosphorylation (ELISA)
Type: biochemical
Settings: 40 μM ATP
Text: Compounds of the invention are screened for the ability to inhibit ATF2 phosphorylation by p38 MAP Kinase in vitro. The ability of compounds to inhibit ATF2 phosphorylation in this in vitro assay is correlated with the inhibition of p38 MAP Kinase and TNFα expression in vivo, and is therefore an indicator of potential in vivo therapeutic activity (Raingeaud, J., et al, J. Biol. Chem., 270: 7420-7426, 1995, Brinkman, M. N., et al, J. Bil. Chem. 274: 30882-30886, 1999 and Fuchs, S. Y. et al, J. Biol. Chem. 275: 12560-12564, 2000).
All kinases and the substrate ATF2 are acquired from Upstate (Charlottesville, Va.). p38 MAP Kinases are recombinant human full-length proteins with an amino-terminal GST fusion, expressed in and purified from E. coli. ATF2 is a GST fusion protein containing amino acids 19-96 of human ATF2 expressed in E. coli. All proteins were aliquoted and stored at −80° C.
p38 MAP Kinase assays are performed using an assay buffer containing 25 mM HEPES, pH 7.5, 10 mM MgCl2, 2 mM DTT, 20 mM β-glycerophosphate, 0.1 mM Na3VO4, 40 μM ATP and 1.25 μM of ATF2, together with 6 ng of p38α protein, 12 ng p38β protein, 1.5 ng p38γ, or 0.4 ng JNK2α2. Compounds are serially diluted in DMSO and 2 μL of test compound at 25× final concentration is used. The vehicle control receives DMSO only. Test compounds are pre-incubated with 20 μl of enzyme in kinase buffer (25 mM HEPES, pH 7.5, 10 mM MgCl2, 2 mM DTT, 20 mM 3-glycerophosphate and 0.1 mM Na3VO4) at room temperature for 15 minutes. […] The reactions are incubated for 30 minutes at 37° C. and terminated by the addition of 18 μl of 200 mM EDTA. An ELISA method is used to measure the phosphorylation of ATF2 at Thr 69. High binding 96-well plates (Corning 3369) are coated with 50 μl of kinase reaction for 1 hour at 37° C. The coated plates are washed with 200 μl washing buffer (25 mM Tris HCl, pH 8.3, 192 mM glycine, 0.1% SDS and 0.05% Tween-20) three times. The plates are then washed three times with SuperBlock in TBS (Pierce, 37535). After blocking, plates are incubated with 50 μl of rabbit anti-phospho-ATF2 antibody (Cell Signaling, 9221 L, 1:500) for 30 minutes at 37° C. Plates are washed three times with washing buffer prior to incubation with 50 μl HRP-conjugated goat anti-rabbit antibody (Cell Signaling, 7074, 1:500) for 30 minutes at 37° C. Plates are then washed three times with washing buffer before incubation with 50 μl of Ultra TMB-ELISA (Pierce, 34028) for 8 minutes at room temperature. Finally, 50 μl of phosphoric acid (1 M) is added to stop reactions and plate absorbance is read at 450 nm on a SpectraMax 250 plate reader.

T1 sequence (Q16539 whole entry, the tested form may be a part): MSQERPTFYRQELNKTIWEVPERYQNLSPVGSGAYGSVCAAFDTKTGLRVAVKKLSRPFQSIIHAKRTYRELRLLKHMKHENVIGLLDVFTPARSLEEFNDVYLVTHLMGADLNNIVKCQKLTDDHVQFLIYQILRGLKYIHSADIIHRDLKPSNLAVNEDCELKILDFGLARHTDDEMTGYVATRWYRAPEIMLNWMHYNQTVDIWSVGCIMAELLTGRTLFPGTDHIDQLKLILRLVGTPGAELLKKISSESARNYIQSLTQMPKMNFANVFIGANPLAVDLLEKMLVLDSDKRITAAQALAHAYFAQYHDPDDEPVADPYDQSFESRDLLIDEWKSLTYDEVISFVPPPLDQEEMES

pIC50 | SMILES
5.85 | CC(C)[C@@H](CO)Nc1nccc(-c2c(-c3ccc4c(c3)OCCO4)nc3sccn23)n1 [CCIII]
6.03 | CC(C)[C@@H](CO)Nc1nccc(-c2c(-c3ccc(C(F)(F)F)cc3)nc3sccn23)n1 [CCII]
5.00 | Cc1csc2nc(-c3ccc(F)cc3)c(-c3ccnc(NC(CO)CO)n3)n12 [CCIV]
6.01 | OCC(CO)Nc1nccc(-c2c(-c3cccc(F)c3)nc3sccn23)n1 [CCVIII]
6.22 | OCC(CO)Nc1nccc(-c2c(-c3ccc(F)c(F)c3)nc3sccn23)n1 [CCVI]
5.50 | Cc1csc2nc(-c3ccc(F)cc3)c(-c3ccnc(N[C@H](CO)C(C)C)n3)n12 [CCV]
5.68 | Nc1cc(-c2c(-c3ccc(F)cc3)nc3sccn23)nc(NC2CC2)n1 [CCXXIII]
5.80 | Nc1cc(-c2c(-c3ccc(F)cc3)nc3sccn23)nc(NCC2CC2)n1 [CCXXIV]
5.99 | CC(C)(CO)CNc1nc(N)cc(-c2c(-c3ccc(F)cc3)nc3sccn23)n1 [CCXXIX]
6.02 | Nc1cc(-c2c(-c3ccc(F)cc3)nc3sccn23)nc(NCCc2ccncc2)n1 [CCXXVIII]
5.88 | CCCNc1nc(N)cc(-c2c(-c3ccc(F)cc3)nc3sccn23)n1 [CCXXVII]
6.12 | CCOCCCNc1nc(N)cc(-c2c(-c3ccc(F)cc3)nc3sccn23)n1 [CCXXVI]
5.98 | C[C@H](O)CNc1nc(N)cc(-c2c(-c3ccc(F)cc3)nc3sccn23)n1 [CCXXV]
5.59 | Nc1cc(-c2c(-c3ccc(F)cc3)nc3sccn23)nc(NC[C@H](O)c2ccccc2)n1 [CCXXX]
6.25 | Cc1ccc(-c2nc3sccn3c2-c2ccnc(NC(CO)CO)n2)cc1 [CCX]
6.03 | O[C@H]1CCN(c2nccc(-c3c(-c4ccc(F)cc4)nc4occn34)n2)C1 [CII]
5.85 | O[C@@H]1CCN(c2nccc(-c3c(-c4ccc(F)cc4)nc4occn34)n2)C1 [CI]
7.81 | c1ccc(-c2nc3sccn3c2-c2ccnc(NCc3ccco3)n2)cc1 [CLIII]
8.21 | Fc1ccc(-c2nc3sccn3c2-c2ccnc(NCc3cccs3)n2)cc1 [CLII]
6.00 | CCOC(=O)Cc1csc2nc(-c3ccc(F)cc3)c(-c3ccnc(SC)n3)n12 [CLIV]
7.04 | c1ccc(-c2nc3sccn3c2-c2ccnc(NCc3ccccn3)n2)cc1 [CLIX]
7.66 | OCCCNc1nccc(-c2c(-c3ccccc3)nc3sccn23)n1 [CLVIII]
8.28 | c1ccc(-c2nc3sccn3c2-c2ccnc(NC3CC3)n2)cc1 [CLVII]
7.23 | CC(C)(C)OC(=O)CNc1nccc(-c2c(-c3ccc(F)cc3)nc3sccn23)n1 [CLVI]

pIC50 | SMILES
6.00 | CCOC(=O)Cc1csc2nc(-c3ccc(F)cc3)c(-c3ccnc(NCc4ccco4)n3)n12 [CLXIII]
6.00 | CCOC(=O)Cc1csc2nc(-c3ccc(F)cc3)c(-c3ccnc(NCC(C)C)n3)n12 [CLXII]
6.00 | CCOC(=O)Cc1csc2nc(-c3ccc(F)cc3)c(-c3ccnc(N4CCCCC4)n3)n12 [CLXIV]
6.57 | COC(=O)C(Cc1ccccc1)Nc1nccc(-c2c(-c3ccc(F)cc3)nc3sccn23)n1 (centres unmarked) [CLXIX]
6.00 | CCOC(=O)Cc1csc2nc(-c3ccc(F)cc3)c(-c3ccnc(NCC4CCCCC4)n3)n12 [CLXI]
5.84 | c1ccc(-c2nc3sccn3c2-c2ccncn2)cc1 [CLXVIII]
6.00 | CC(C)CNC(=O)Cc1csc2nc(-c3ccc(F)cc3)c(-c3ccnc(NCC(C)C)n3)n12 [CLXVII]
6.00 | O=C(Cc1csc2nc(-c3ccc(F)cc3)c(-c3ccnc(NCC4CCCCC4)n3)n12)NCC1CCCCC1 [CLXVI]
6.00 | O=C(Cc1csc2nc(-c3ccc(F)cc3)c(-c3ccnc(NCc4ccccc4)n3)n12)NCc1ccccc1 [CLXV]
7.09 | CC(C)[C@@H](Nc1nccc(-c2c(-c3ccc(F)cc3)nc3sccn23)n1)C(=O)OC(C)(C)C [CLXXIII]
6.17 | CC(C)[C@@H](Nc1nccc(-c2c(-c3ccc(F)cc3)nc3sccn23)n1)C(=O)O [CLXXIV]
6.72 | CC(CO)(CO)Nc1nccc(-c2c(-c3ccc(F)cc3)nc3sccn23)n1 [CLXXIX]
6.00 | CC(O)CN(CC(C)O)c1nccc(-c2c(-c3ccc(F)cc3)nc3sccn23)n1 (centres unmarked) [CLXXVIII]
6.10 | OCCN(CCO)c1nccc(-c2c(-c3ccc(F)cc3)nc3sccn23)n1 [CLXXVII]
6.00 | CN(CCO)c1nccc(-c2c(-c3ccc(F)cc3)nc3sccn23)n1 [CLXXVI]
5.47 | COc1cccc(-c2nc3sccn3c2-c2ccnc(SC)n2)c1 [CLXXV]
6.00 | OCCN1CCN(c2nccc(-c3c(-c4ccc(F)cc4)nc4sccn34)n2)CC1 [CLXXXIII]
6.46 | CC(C)C[C@H](CO)Nc1nccc(-c2c(-c3ccc(F)cc3)nc3sccn23)n1 [CLXXXII]
6.23 | OC1CCN(c2nccc(-c3c(-c4ccc(F)cc4)nc4sccn34)n2)CC1 [CLXXXIV]
5.73 | Cc1cn2c(-c3ccnc(S(C)(=O)=O)n3)c(-c3ccc(F)cc3)nc2s1 [CLXXXVII]
7.06 | OCC(CO)Nc1nccc(-c2c(-c3ccc(F)cc3)nc3sccn23)n1 [CLXXXV]
7.87 | CC[C@H](C)C(Nc1nccc(-c2c(-c3ccc(F)cc3)nc3sccn23)n1)C(=O)OC (some centres unmarked) [CLXX]
6.00 | CCOC(=O)Cc1csc2nc(-c3ccc(F)cc3)c(-c3ccnc(NCc4ccccc4)n3)n12 [CLX]
6.67 | OCCN(Cc1ccccc1)c1nccc(-c2c(-c3ccc(F)cc3)nc3sccn23)n1 [CXCII]

pIC50 | SMILES
6.25 | OC[C@@H](Nc1nccc(-c2c(-c3ccc(F)cc3)nc3sccn23)n1)[C@H](O)c1ccccc1 [CXCIV]
6.37 | COc1cccc(-c2nc3sccn3c2-c2ccnc(NCCOCCO)n2)c1 [CXCIX]
6.13 | CSc1nccc(-c2c(-c3ccc(F)cc3)nc3sc(C)cn23)n1 [CXCI]
6.19 | COc1cccc(-c2nc3sccn3c2-c2ccnc(NCC(O)CO)n2)c1 (centres unmarked) [CXCVIII]
7.21 | COc1cccc(-c2nc3sccn3c2-c2ccnc(NCC(C)O)n2)c1 (centres unmarked) [CXCVII]
6.09 | COc1cccc(-c2nc3sccn3c2-c2ccnc(N[C@H](CO)[C@H](O)c3ccccc3)n2)c1 [CXCVI]
7.35 | COc1cccc(-c2nc3sccn3c2-c2ccnc(NC(C)CO)n2)c1 (centres unmarked) [CXCV]
5.52 | COc1ccc(-c2nc3sccn3c2-c2ccnc(SC)n2)cc1 [CXC]
8.09 | Fc1ccc(-c2nc3sccn3c2-c2ccnc(NCc3ccco3)n2)cc1 [CXLIII]
8.71 | CC(C)CNc1nccc(-c2c(-c3ccc(F)cc3)nc3sccn23)n1 [CXLII]
8.31 | Fc1ccc(-c2nc3sccn3c2-c2ccnc(NCc3ccccc3)n2)cc1 [CXLI]
6.89 | Fc1ccc(-c2nc3sccn3c2-c2ccnc(N3CCOCC3)n2)cc1 [CXLVI]
7.18 | COc1ccc(CNc2nccc(-c3c(-c4ccc(F)cc4)nc4sccn34)n2)cc1 [CXLV]
7.01 | Nc1nccc(-c2c(-c3ccc(F)cc3)nc3occn23)n1 [CXXIX]
7.09 | COc1ccc(CNc2nccc(-c3c(-c4ccccc4)nc4sccn34)n2)cc1 [CXXXIII]
6.95 | c1ccc(-c2nc3sccn3c2-c2ccnc(N3CCOCC3)n2)cc1 [CXXXIV]
6.20 | CSc1nccc(-c2c(-c3ccc(F)cc3)nc3sccn23)n1 [CXXXIX, 6-(4-fluorophenyl)-5-(2-methylsulfanyl-pyrimidin-4-yl)-imidazo[2,1-b]thiazole]
7.55 | c1ccc(CNc2nccc(-c3c(-c4ccccc4)nc4sccn34)n2)cc1 [CXXXI]
7.99 | c1ccc(-c2nc3sccn3c2-c2ccnc(NCc3cccs3)n2)cc1 [CXXXVIII]
7.18 | c1ccc(-c2nc3sccn3c2-c2ccnc(NCC3CCCCC3)n2)cc1 [CXXXVII]
6.82 | Fc1ccc(CNc2nccc(-c3c(-c4ccccc4)nc4sccn34)n2)cc1 [CXXXVI]
6.40 | c1ccc(-c2nc3sccn3c2-c2ccnc(N3CCCCC3)n2)cc1 [CXXXV]
6.64 | CSc1nccc(-c2c(-c3ccccc3)nc3sccn23)n1 [CXXX]
